From patent US9605000B2, “Spiro azetidine isoxazole derivatives and their use as SSTR antagonists” (Takeda Pharmaceutical Company Limited, priority 2013, dated 2017) come the findings set out here.

One data set concerns the target hERG (Homo sapiens, UniProt Q12809). The data set is described as follows: hERG activity measurement by IonWorks Quattro (Test Example 4). The data set is classed as cell-based. The settings on record: 5 minutes exposure, CHO cells stably expressing hERG, IonWorks Quattro PPC mode. The method, then:
hERG Activity Measurement by IonWorks Quattro
A cell strain CYL3038 having hERG stably expressed in CHO cells was purchased from Millipore LIMITED. A subculture of CYL3038 was prepared using Ham's F-12 medium containing 10% FBS and 500 μg/mL Geneticin, under the presence of 5% CO2 at 32° C. hERG current inhibition was measured by PPC mode of IonWorks Quattro (Molecular Devices, Inc.). As an extracellular fluid, PBS (+) was used. As an intracellular fluid, 20 mM HEPES buffer (pH 7.3) containing 140 mM KCl, 2 mM MgCl2 and 1 mM EGTA was used, and the cell was perforated by amphotericin. As the voltage protocol, holding potential was set to −80 mV, prepulsevoltage was set to 40 mV (2 seconds) and test pulsevoltage was set to −50 mV (2 seconds). Current values before and after addition of compound are respectively recorded as pre-compound hERG current and post-compound hERG current.

The target in another data set is T1, human SSTR5 (Homo sapiens, UniProt P35346).
T1 construct: expressed in transfected cells
T1 sequence (P35346 whole entry): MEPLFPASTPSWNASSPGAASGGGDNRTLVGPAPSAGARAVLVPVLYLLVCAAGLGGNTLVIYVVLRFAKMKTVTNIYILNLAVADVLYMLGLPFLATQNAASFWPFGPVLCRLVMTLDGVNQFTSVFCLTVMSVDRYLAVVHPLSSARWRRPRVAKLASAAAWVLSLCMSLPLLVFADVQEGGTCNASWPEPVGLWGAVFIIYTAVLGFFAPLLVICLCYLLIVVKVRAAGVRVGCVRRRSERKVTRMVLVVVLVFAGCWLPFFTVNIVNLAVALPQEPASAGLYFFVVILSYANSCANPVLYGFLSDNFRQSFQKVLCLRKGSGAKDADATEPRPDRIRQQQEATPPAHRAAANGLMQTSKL
Description: Human SSTR5 antagonist activity using intracellular cAMP concentration as indicator (somatostatin 28, Test Example 2). The data set is classed as cell-based. The settings on record: 1 μM test compound; somatostatin 28 and 0.3 μM forskolin; CHO (dhfr-) cells expressing human SSTR5; HTRF cAMP; read-out: Inhibition rate (%) with respect to SSTR5 in concentration of 1 μM. The method, then: Evaluation of Human SSTR5 Antagonist Activity Using an Intracellular cAMP Concentration as an Indicator
Measurement of the intracellular cAMP concentration was performed using a HTRF cAMP dynamic 2 kit (manufactured by Cisbio). A test compound which was diluted with an assay buffer (5 mM HEPES (pH 7.5) (manufactured by Invitrogen Corp.), 0.1% fatty-acid free BSA (manufactured by Sigma-Aldrich, Inc.), HBSS (manufactured by Invitrogen Corp.) containing 500 μM IBMX (manufactured by Wako Pure Chemical Industries, Ltd) was added by 2 μL/well to a 384 well white plate (manufactured by Greiner) such that a final concentration become 1 μM. A frozen stock, which was stably expressed dihydrofolate reductase-deficient CHO (dhfr-) cells in which human SSTR5 gene (Accession No. NM001053) was melted in a thermostatic chamber at 37° C., and it was suspended on a medium of subculture (medium prepared from MEM alpha (manufactured by Wako Pure Chemical Industries, Ltd.), 10% dialyzed serum (manufacture by Gemini Co., Ltd.) and 50 μg/mL gentamicin (manufactured by Invitrogen Corp.). After centrifuging the cell suspension, the cell suspension was resuspended using the assay buffer, and the resultant was added to each well by 2 μL/well to be 4000 cells/well. After a test compound and cells were incubated for 15 minutes. An assay buffer which contains 0.1 nM of somatostatin 28 (manufactured by Toray Research Center) and 0.3 μM of forskolin (manufactured by Wako Pure Chemical Industries, Ltd) as a final concentration was added by […], and incubation was performed for 30 minutes at room temperature. Each of cAMP-d2 and anti-cAMP-cryptate was added by 3 μL/well, it was allowed to stand for 60 minutes at room temperature, and FRET (Fluorescence resonance energy transfer) intensity was measured using Multi-label reader Envision (manufactured by Perkin Elmer Inc.). Using the calibration curve prepared from the FRET intensity of well groups in which cAMP as arbitrary concentration was added to an assay buffer, FRET intensity of wells in which a test compound group was added was converted into cAMP concentration. Inhibitory activity of compounds was calculated using the following equation. Inhibitory activity (%)=(C−B)/(A−B)×100 A: cAMP concentration calculated from wells in which 0.3 μM of forskolin is added B: cAMP concentration calculated from wells in which 0.3 μM of forskolin and 1 nM of somatostatin 28 are added C: cAMP concentration wells in which 0.3 μM of forskolin, 1 nM of somatostatin 28 and 1 μM of test compound are added
Inhibition rates (%) are described in Table 3 with respect to SSTR5 in concentration of 1 μM of a test compound.
Background: Time-resolved FRET reads energy transfer from a long-lived donor to a nearby acceptor.

A further data set relates to C57BL/6J mice. Description: Evaluation of glucose lowering effect (oral glucose load in high fat diet fed mice, Test Example 3). It is filed as in vivo. The settings on record: 3 mg/kg oral, male C57BL/6J mice on HFD, Mean ± SD, n = 6. The method, then:
Evaluation of Glucose Lowering Effect
8-week-old male C57BL/6J mice were purchased from CLEA Japan, Inc. After feeding high fat diet (HFD; D12492, Research Diets, Inc.) for a week, weight of mice is measured a day before the experiment, and the mice were separated in groups based on the weight. On the day of experiment, vehicle (0.5% methyl cellulose solution) or test drug (0.5% methyl cellulose suspension) were orally administered 1 hour after fasting was started and glucose load was given orally 9 hours after fasting was started. Just before the glucose load, Blood Glucose (BG) was measured by drawing blood from the tail (pre), and BG was measured again from the tail 10 minutes, 30 minutes, 60 minutes and 120 minutes after the glucose load. All values were indicated with Mean±Standard Deviation (SD), and in the statistical analysis, Williams test was used for the case of equal variance and Shirley-Williams test was used for non-equal variance in the comparison of the vehicle group and test drug group.

Chain of hERG (Q12809 whole entry): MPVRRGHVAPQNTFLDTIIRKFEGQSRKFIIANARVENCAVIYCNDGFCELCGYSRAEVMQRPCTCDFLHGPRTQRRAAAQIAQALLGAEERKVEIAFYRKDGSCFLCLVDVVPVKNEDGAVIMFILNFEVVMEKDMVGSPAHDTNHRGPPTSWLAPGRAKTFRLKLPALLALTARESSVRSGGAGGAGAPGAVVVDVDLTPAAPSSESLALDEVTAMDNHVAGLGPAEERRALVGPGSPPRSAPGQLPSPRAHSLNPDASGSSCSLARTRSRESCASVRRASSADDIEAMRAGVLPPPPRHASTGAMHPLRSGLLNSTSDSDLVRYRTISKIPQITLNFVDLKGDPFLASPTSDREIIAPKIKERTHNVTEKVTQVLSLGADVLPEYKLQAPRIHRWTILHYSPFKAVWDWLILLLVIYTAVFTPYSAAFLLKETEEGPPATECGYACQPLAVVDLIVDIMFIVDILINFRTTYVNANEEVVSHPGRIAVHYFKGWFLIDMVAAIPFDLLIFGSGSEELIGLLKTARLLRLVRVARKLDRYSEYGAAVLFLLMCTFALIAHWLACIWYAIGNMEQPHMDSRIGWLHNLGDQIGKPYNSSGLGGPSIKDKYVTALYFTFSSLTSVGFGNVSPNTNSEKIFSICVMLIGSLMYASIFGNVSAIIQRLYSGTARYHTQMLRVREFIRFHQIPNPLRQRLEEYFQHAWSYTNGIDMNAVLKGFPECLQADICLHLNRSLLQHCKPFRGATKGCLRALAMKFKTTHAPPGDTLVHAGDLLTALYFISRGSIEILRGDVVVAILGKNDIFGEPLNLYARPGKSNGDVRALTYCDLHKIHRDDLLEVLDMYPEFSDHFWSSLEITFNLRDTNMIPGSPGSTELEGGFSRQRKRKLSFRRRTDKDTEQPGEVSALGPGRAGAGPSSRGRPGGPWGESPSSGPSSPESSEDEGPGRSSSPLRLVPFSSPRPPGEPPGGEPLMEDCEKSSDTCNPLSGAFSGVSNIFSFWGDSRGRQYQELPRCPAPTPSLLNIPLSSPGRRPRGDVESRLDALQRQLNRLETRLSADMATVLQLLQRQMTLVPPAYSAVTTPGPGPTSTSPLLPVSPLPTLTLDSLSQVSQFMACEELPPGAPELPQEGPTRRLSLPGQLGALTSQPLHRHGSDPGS

`COc1c(CN2CC3(CC(N4CCC(C)(C(=O)O)CC4)=NO3)C2)cc(C2CC2)c(-c2ccc(F)cc2)c1Cl` [Example 238, 1-(2-((2-Chloro-6-cyclopropyl-4′-fluoro-3-methoxybiphenyl-4-yl)methyl)-5-oxa-2,6-diazaspiro[3.4]oct-6-en-7-yl)-4-methylpiperidine-4-carboxylic acid]: the “% hERG inhibition (10 μM)” value on hERG stood at 10%. Further, the inhibition at 1 µM on human SSTR5 came to 99%. The “Blood Glucose (BG) 10 min” value in the data set with C57BL/6J mice (10 minutes after glucose load) was found to be 261 ± 42. The “Blood Glucose (BG) 30 min” value with C57BL/6J mice (30 minutes after glucose load) is listed as 350 ± 49. Also, the “Blood Glucose (BG) 60 min” value in the data set on C57BL/6J mice (60 minutes after glucose load) amounted to 345 ± 38. Further, the “Blood Glucose (BG) 120 min” value in the data set with C57BL/6J mice (120 minutes after glucose load) worked out at 188 ± 22. Also, the AUCpre-120 min with C57BL/6J mice (blood glucose AUC pre to 120 min after glucose load) was 576 ± 52. Moreover, the “Blood Glucose (BG) pre” value in the data set with C57BL/6J mice (just before glucose load) worked out at 148 ± 19.
`CCOc1cc(C2CC2)c(C2CC2)cc1CN1CC2(CC(N3CCC(C)(C(=O)O)CC3)=NO2)C1` [Example 250, 1-(2-(4,5-Dicyclopropyl-2-ethoxybenzyl)-5-oxa-2,6-diazaspiro[3.4]oct-6-en-7-yl)-4-methylpiperidine-4-carboxylic acid]: the inhibition at 1 µM on human SSTR5 worked out at 98%.
Still for that read-out and setting: with `CC(C)Oc1c(CN2CC3(CC(N4CCC(C)(C(=O)O)CC4)=NO3)C2)cc(C2CC2)c(C2CC2)c1F` [Example 256, 1-(2-(4,5-Dicyclopropyl-3-fluoro-2-isopropoxybenzyl)-5-oxa-2,6-diazaspiro[3.4]oct-6-en-7-yl)-4-methylpiperidine-4-carboxylic acid] the figure was 121%; with `CCOc1c(CN2CC3(CC(N4CCC(C)(C(=O)O)CC4)=NO3)C2)cc(C2CC2)c(C2CC2)c1F` [Example 257, 1-(2-(4,5-Dicyclopropyl-2-ethoxy-3-fluorobenzyl)-5-oxa-2,6-diazaspiro[3.4]oct-6-en-7-yl)-4-methylpiperidine-4-carboxylic acid], 117%.
For `COc1c(CN2CC3(CC(N4CCC(C)(C(=O)O)CC4)=NO3)C2)cc(C2CC2)c(-c2ccc(F)cc2F)c1Cl` [Example 258, 1-(2-((2-Chloro-6-cyclopropyl-2′,4′-difluoro-3-methoxybiphenyl-4-yl)methyl)-5-oxa-2,6-diazaspiro[3.4]oct-6-en-7-yl)-4-methylpiperidine-4-carboxylic acid], the inhibition at 1 µM on human SSTR5 turned out to be 124%.
On the same count and under the same terms, under `COc1c(CN2CC3(CC(N4CCC(C)(C(=O)O)CC4)=NO3)C2)cc(C2CC2)c(-c2ccc(F)cc2F)c1F` [Example 259, 1-(2-((6-Cyclopropyl-2,2′,4′-trifluoro-3-methoxybiphenyl-4-yl)methyl)-5-oxa-2,6-diazaspiro[3.4]oct-6-en-7-yl)-4-methylpiperidine-4-carboxylic acid] stands 90%; under `CCOc1c(CN2CC3(CC(N4CCC(C(=O)O)CC4)=NO3)C2)cc(C2CC2)c(-c2ccc(F)cc2)c1F` [Example 261, 1-(2-((6-Cyclopropyl-3-ethoxy-2,4′-difluorobiphenyl-4-yl)methyl)-5-oxa-2,6-diazaspiro[3.4]oct-6-en-7-yl)piperidine-4-carboxylic acid], 92%.
With `CCC1(C(=O)O)CCN(C2=NOC3(C2)CN(Cc2cc(C4CC4)c(-c4ccc(F)cc4F)c(Cl)c2OC)C3)CC1` [Example 262, 1-(2-((2-Chloro-6-cyclopropyl-2′,4′-difluoro-3-methoxybiphenyl-4-yl)methyl)-5-oxa-2,6-diazaspiro[3.4]oct-6-en-7-yl)-4-ethylpiperidine-4-carboxylic acid], on human SSTR5, the inhibition at 1 µM was 100%.
On to `COc1c(CN2CC3(CC(N4CCC(C)(C(=O)O)CC4)=NO3)C2)cc(C2CC2)c(-c2ccc(F)cc2)c1F` [Example 265, 1-(2-((6-Cyclopropyl-2,4′-difluoro-3-methoxybiphenyl-4-yl)methyl)-5-oxa-2,6-diazaspiro[3.4]oct-6-en-7-yl)-4-methylpiperidine-4-carboxylic acid], for which, on hERG, the “% hERG inhibition (10 μM)” value is given as 18%. In addition, the inhibition at 1 µM at human SSTR5 was found to be 92%.
In the case of `COc1c(CN2CC3(CC(N4CCC(C(=O)O)CC4)=NO3)C2)cc(C2CC2)c(-c2ccc(F)cc2)c1F` [Example 266, 1-(2-((6-Cyclopropyl-2,4′-difluoro-3-methoxybiphenyl-4-yl)methyl)-5-oxa-2,6-diazaspiro[3.4]oct-6-en-7-yl)piperidine-4-carboxylic acid], the inhibition at 1 µM at human SSTR5 is 88%.
